According to publication PMC11240926, “Integrating In Silico and In Vitro Approaches to Identify Natural Peptides with Selective Cytotoxicity against Cancer Cells” (International Journal of Molecular Sciences, 2024):
Ends that are not written are not given here. Peptide text beside a SMILES is read from it.

What was measured:
Mahlavu = assay type: cell-based, human; conditions: Mahlavu liver cancer cells, MTT, 48 h
Method: (§1) The culture medium used for the cancer cell lines included 10% fetal bovine serum (Gibco, Grand Island, NY, USA) and 1% penicillin/streptomycin (Gibco) in 5% CO2 at 37 °C. Cells were seeded into 96-well tissue culture plates at a concentration of 1 × 10^4 cells per 200 μL per well and allowed to settle overnight. The cells were then treated with serial dilutions of various ACPs. After 48 h of incubation, cell viability for each line was assessed using the MTT colorimetric assay (Sigma-Aldrich, St. Louis, MO, USA). The peptide preparation and dilution in our anticancer assays are as follows: ACPs (10 mg) were dissolved in 100 μL of DMSO to generate 100 mg/mL stock solutions. These stock solutions were then diluted 100 times with a culture medium to obtain a 1 mg/mL solution. Finally, serial dilutions were prepared in a culture medium containing 1% DMSO to achieve the desired ACP concentrations for the MTT assay.

HepG2 = assay type: cell-based, human; conditions: HepG2 liver cancer cells, MTT, 48 h
Method: as §1

A431 = assay type: cell-based, human; conditions: Skin, MTT assay
Method: as §1

A549 = assay type: cell-based, human; conditions: Lung, MTT assay
Method: as §1

Hs578T = assay type: cell-based, human; conditions: Breast, MTT assay
Source text: Supplement ijms-25-06848-s001.zip/IJMS_Supplementary Table S2.xlsx, sheet "Table S2" | column: ACP1; ACP2; ACP3; ACP4; ACP5; ACP6; ACP7; ACP8; ACP9; ACP10; ACP11; ACP12

DBTRG brain tumor cells = assay type: cell-based; conditions: human
Method: as §1

cancer cell lines = experiment: MTT colorimetric assay, panel of over 30 cancer cell lines; assay type: cell-based, human; conditions: 48 h
Method: as §1

SKOV-3 ovarian carcinoma = assay type: cell-based, human; conditions: MTT, 48 h
Method: as §1

DU145 prostate cancer = assay type: cell-based, human; conditions: MTT, 48 h
Method: as §1

HT1080 fibrosarcoma = assay type: cell-based, human; conditions: MTT, 48 h
Method: as §1

[1] = tested on: Burkitt lymphoma-derived Daudi cell line; assay type: cell-based, human; conditions: MTT, 48 h
Method: as §1

[2] = tested on: triple-negative breast cancer cell line MDA-MB-231; assay type: cell-based, human; conditions: MDA-MB-231, MTT, 48 h
Method: as §1

BT474 cells = assay type: cell-based, human; conditions: MTT, 48 h
Method: as §1

[3] = endometrial and hypopharyngeal cancer cells

GLLGVLGSVAKHVLPHVVPVIAEHL [ACP9] was tested, and the “cytotoxicity, in words” value (Mahlavu) was “particularly effective” and the “cytotoxicity, in words” value (HepG2) was “particularly effective”.

With EQQQQQQPQNRRFRE [ACP11] the “Cytotoxicity against cancer cell line A431” value (A431) was >1000, the “Cytotoxicity against cancer cell line A549” value (A549) was >1000 and the “Cytotoxicity against cancer cell line Hs578T” value (Hs578T) was >1000. For the same compound, the IC50 (DBTRG brain tumor cells) was 32.1 µM.

“KSCCPNTTGRNIYNTCRFGGGSREVCASLSGCKIISASTCPSYPDK (cysteines drawn unpaired) [ACP7]” was tested, and the “anticancer effects, in words” value (cancer cell lines; [3]) was “affected” and the “anticancer effects, in words” value (cancer cell lines; liver and breast cancers) was “notable anticancer effects”.

In the case of “YKQCHKKGGHCFPKEKICIPPSSDFGKMDCRWRWKCCKKGSG (cysteines drawn unpaired) [ACP8]”, the “selective cytotoxicity, in words” value (SKOV-3 ovarian carcinoma) is reported as “selectively targeting”, the “selective cytotoxicity, in words” value (DU145 prostate cancer) is reported as “selectively targeting” and the “selective cytotoxicity, in words” value (HT1080 fibrosarcoma) is reported as “selectively targeting”.

For FKGGGPYGQGVTRGQDLSGKDF [ACP12], the “Cytotoxicity against cancer cell line A549” value (A549) was >1000, the “anticancer activity, in words” value [1] was “demonstrated anticancer activity” and the “anticancer activity, in words” value [2] was “demonstrated anticancer activity”.

For `CC[C@H](C)[C@H](NC(=O)[C@@H]1CCCN1C(=O)[C@H](Cc1c[nH]c2ccccc12)NC(=O)[C@H](CO)NC(=O)[C@H](CS)NC(=O)[C@H](CO)NC(=O)[C@H](CS)NC(=O)CNC(=O)[C@@H]1CCCN1C(=O)[C@@H](NC(=O)[C@H](CC(N)=O)NC(=O)[C@H](CS)NC(=O)[C@@H](NC(=O)CNC(=O)CNC(=O)[C@H](Cc1ccccc1)NC(=O)[C@H](CS)NC(=O)[C@@H](NC(=O)[C@H](CCC(=O)O)NC(=O)CNC(=O)[C@H](CS)NC(=O)[C@@H](NC(=O)[C@@H](NC(=O)[C@@H]1CCCN1C(=O)[C@@H](NC(=O)[C@@H](NC(=O)[C@@H](N)CO)C(C)C)[C@@H](C)O)[C@@H](C)CC)C(C)C)[C@@H](C)O)[C@@H](C)O)[C@@H](C)O)C(=O)N[C@@H](CS)C(=O)N[C@H](C(=O)N[C@@H](CCCCN)C(=O)O)[C@@H](C)O` [ACP10] (H-SVTPIVCGETCFGGTCNTPGCSCSWPICTK-OH; N-terminus and C-terminus assumed), the “cytotoxicity, in words” value (BT474 cells) was “pronounced cytotoxicity”.

`CC[C@H](C)[C@H](NC(=O)[C@H](CS)NC(=O)[C@@H]1CCCN1C(=O)[C@@H](NC(=O)[C@H](Cc1ccccc1)NC(=O)[C@@H](NC(=O)[C@H](CS)NC(=O)[C@H](CO)NC(=O)[C@H](CCC(=O)O)NC(=O)CNC(=O)[C@H](CS)NC(=O)[C@@H]1CCCN1C(=O)[C@@H](NC(=O)[C@@H](NC(=O)CN)C(C)C)[C@@H](C)CC)C(C)C)[C@@H](C)CC)C(=O)N[C@@H](CO)C(=O)N[C@H](C(=O)N[C@@H](CC(C)C)C(=O)N[C@@H](CC(C)C)C(=O)NCC(=O)N[C@@H](CS)C(=O)N[C@@H](CO)C(=O)N[C@@H](CS)C(=O)N[C@@H](CCCCN)C(=O)N[C@@H](CC(N)=O)C(=O)N[C@@H](CCCCN)C(=O)N[C@H](C(=O)N[C@@H](CS)C(=O)N[C@@H](Cc1ccc(O)cc1)C(=O)N[C@@H](CCCNC(=N)N)C(=O)N[C@@H](CC(N)=O)C(=O)O)C(C)C)[C@@H](C)O` [ACP6] (H-GVIPCGESCVFIPCISTLLGCSCKNKVCYRN-OH) was tested, and the “anticancer effects, in words” value (cancer cell lines; [3]) was “affected” and the “anticancer effects, in words” value (cancer cell lines; liver and breast cancers) was “notable anticancer effects”.
